The values that follow come from paper PMC6736568, “Discovery of Novel Anti-cryptosporidial Activities From Natural Products by in vitro High-Throughput Phenotypic Screening” (Frontiers in Microbiology, 2019).

For data set [1], the system named is HCT-8 host cells (Hs18S).
A short description of data set [2]: in vitro. Particulars: for cytotoxicity at 41 h, 10 µM: human.
The test system of data set [3] is Cryptosporidium parvum. As to the kind of experiment: qRT-PCR assay of the growth of C. parvum in vitro in HCT-8 host cells (primary and secondary screening, EC50). It counts as cell-based. As to conditions: Cryptosporidium parvum; for inhibition at 10 µM / inhibition at 3.3 µM: HCT-8; for inhibition at 10 µM: primary screening at 10 uM, read-out: Inhibition (%); for pEC50: growth of C. parvum in vitro, HCT-8 host cells, 44 h infection; for inhibition at 3.3 µM: secondary screening at 3.3 uM, read-out: % Inhibition (3.3 uM). On the technique in general: In qPCR the cycle at which signal appears reflects the starting amount.

For data set [4], the system named is HCT-8 cells. As to the kind of experiment: In vitro cytotoxicity MTS assay on host cells. It counts as cell-based, human. Particulars: 41 h. The protocol:
The plates were measured for absorbance at 490 nm in 15 min intervals in a SmartReader 96 microplate reader (Accuris, Edison, NJ, United States). Cytotoxicity of a compound was quantified by calculating the half maximal toxic concentration on host cells (TC50). An in vitro safety interval (SI) was calculated by determining the ratio between TC50 and EC50 values (i.e., SI = TC50/EC50).
(Tetrazolium dyes change colour on reduction, which living cells bring about.)

Setting [5] is: primary screening at 10 uM, treated vs control.

The structures appear in SMILES notation. pEC50: −log10 of the molar value. Where a name gives a salt, the structure may show the parent alone. Read-outs that look alike come from different tables or passages of the source. *1 amine or outer side, *2 acyl side, *3 side chain or, on linkers, in order; H or OH if unused. Where a SMILES comes first, the peptide text is derived from it. Bridges are numbered along the chain shown (N, C = ends). Roman numbers before positions name the chains, in order. [ ]: non-standard residue; d: D form. Actinocin(9to1) = Cc1c2oc3c(C)ccc(C(=O)[*:1])c3nc-2c(C(=O)[*:2])c(N)c1=O; NMeV = CN[C@H](C(=O)O)C(C)C; Sar = CNCC(=O)O

What is called inhibition is the relative decrease from the control value, in per cent. The term pEC50 denotes the negative decadic logarithm of the EC50, by convention in mol/L. In the case of `CC1(C)C(=O)C=C[C@@]2(C)C1=C(O)C(=O)[C@]1(C)[C@@H]2CC[C@@]2(C)[C@H](c3ccoc3)C[C@H]3O[C@]321` [Cedrelone], in data set [1] (human, 41 h, 10 μM), the “Hs18S ΔCT” value was 1.38. The cytotoxicity at 41 h, 10 µM in data set [2] came out at 61.7%. In addition, in data set [3], the inhibition at 10 µM worked out at 99.5% and the negative logarithm of the EC50 (pEC50) is 6.57. The molecule also gave a TC50 in data set [4] (human) of 3.59 µM.
For `O=c1cc(-c2ccccc2)oc2cc(O)c(O)c(O)c12` [Baicalein], the “Hs18S ΔCT” value in data set [1] (human, 41 h, 10 μM) is given as 0.10. For the same molecule, the cytotoxicity at 41 h, 10 µM in data set [2] turned out to be 6.7%. For the same molecule, in data set [3], the inhibition at 10 µM came to 81.3%, the inhibition at 3.3 µM worked out at 66% and the pEC50 is 6.01. The molecule further showed a TC50 in data set [4] (human) greater than 100 µM.
Take `COc1ccc(C(=O)c2ccc(O)cc2)c(O)c1O` [2,3,4′-Trihydroxy-4-methoxybenzophenone]: the “Hs18S ΔCT” value in data set [1] (human, 41 h, 10 μM) came to 0.10. The cytotoxicity at 41 h, 10 µM in data set [2] stood at 6.4%. Further, in data set [3], the inhibition at 10 µM stood at 83.2%, the inhibition at 3.3 µM came to 59% and the pEC50 is 5.43. This molecule registered a TC50 in data set [4] (HCT-8 cells, MTS) greater than 100 µM.
For the molecule `Cc1c2oc3c(C)ccc(C(=O)N[C@@H]4C(=O)N[C@H](C(C)C)C(=O)N5CCC[C@H]5C(=O)N(C)CC(=O)N(C)[C@@H](C(C)C)C(=O)O[C@@H]4C)c3nc-2c(C(=O)N[C@@H]2C(=O)N[C@H](C(C)C)C(=O)N3CCC[C@H]3C(=O)N(C)CC(=O)N(C)[C@@H](C(C)C)C(=O)O[C@@H]2C)c(N)c1=O` [Dactinomycin, reference compound] (I: T[dV]P[Sar][NMeV] / II: T[dV]P[Sar][NMeV]; ester I:1-I:C, II:1-II:C; linker I:N-II:N via Actinocin(9to1)), the “Hs18S ΔCT” value in data set [1] (setting [5]) was 1.50. Also, in data set [2], the cytotoxicity at 10 µM was 64.6%. In data set [3], the inhibition at 10 µM turned out to be 94.3%, the inhibition at 3.3 µM came to 97% and the pEC50 is 6.50. The same molecule registered a TC50 in data set [4] (HCT-8 cells, MTS) of 2.82 µM.
For `CC1(C)C(=O)C=C[C@]2(C)[C@H]3CC[C@@]4(C)[C@H](c5ccoc5)OC(=O)[C@H]5O[C@]54[C@]3(C)[C@H](O)C[C@@H]12` [Deacetylgedunin], the “Hs18S ΔCT” value in data set [1] (setting [5]) is given as 0.23. Besides, in data set [2], the cytotoxicity at 10 µM worked out at 14.8%. In addition, in data set [3], the inhibition at 10 µM is 91.1%, the inhibition at 3.3 µM was found to be 56% and the negative-log EC50 (pEC50) is 5.75. The TC50 in data set [4] (HCT-8 cells, MTS) stood at 30.9 µM.
`CO[C@@]12[C@H](COC(N)=O)C3=C(C(=O)C(C)=C(N)C3=O)N1C[C@@H]1N[C@@H]12` [Mitomycin, reference compound]: the “Hs18S ΔCT” value in data set [1] is 1.34. Besides, the cytotoxicity at 10 µM in data set [2] was 60.5%. Further, in data set [3], the inhibition at 10 µM was 93.7%, the inhibition at 3.3 µM was 78% and the negative-log EC50 (pEC50) was 6.88. Further, in data set [4] (HCT-8 cells, MTS), the TC50 turned out to be 13.1 µM.
`Cc1cccc2c3c(ccc12)C1=C(C(=O)C3=O)[C@@H](C)CO1` [Dihydrotanshinone I]: the “Hs18S ΔCT” value in data set [1] (human, 41 h, 10 μM) is 0.00. The cytotoxicity at 41 h, 10 µM in data set [2] turned out to be 0.2%. Moreover, in data set [3], the inhibition at 10 µM was 87%, the inhibition at 3.3 µM amounted to 75% and the pEC50 is 5.51. The molecule also displayed a TC50 in data set [4] (human) of 25.0 µM.
On to `CC[C@H](C)C(=O)O[C@H]1C[C@@H](C)C=C2C=C[C@H](C)[C@H](CC[C@@H]3C[C@@H](O)CC(=O)O3)[C@H]21` [Lovastatin, reference compound], for which the “Hs18S ΔCT” value in data set [1] (human, 41 h, 10 μM) was 0.60. The cytotoxicity at 41 h, 10 µM in data set [2] stood at 34.1%. In data set [3], the inhibition at 10 µM came out at 85.8%, the inhibition at 3.3 µM is 58% and the negative logarithm of the EC50 (pEC50) was 5.62. In data set [4] (HCT-8 cells, MTS), the TC50 was greater than 100 µM.
As to `C[N+]12CC[C@@]34c5ccccc5N5C(=O)C[C@@H]6OCC=C(C1)[C@H](C[C@@H]32)[C@@H]6[C@H]54` (some centres unmarked) [[…]], the “Hs18S ΔCT” value in data set [1] (setting [5]) came out at 0.58. For the same molecule, the cytotoxicity at 10 µM in data set [2] turned out to be 33.3%. Besides, in data set [3], the inhibition at 10 µM is -6.9%.
Take `CC(C)c1ccc2c(c1)CC[C@H]1[C@](C)(CN)CCC[C@]21C` [18-AMINOABIETA-8,11,13-TRIENE SULFATE]: the “Hs18S ΔCT” value in data set [1] (human, 41 h, 10 μM) is -0.19. For the same molecule, the cytotoxicity at 41 h, 10 µM in data set [2] was -13.9%. In data set [3], the inhibition at 10 µM is 47.6%.
For `O=C1c2ccccc2C(=O)c2c1ccc(O)c2O` [ALIZARIN], in data set [1] (setting [5]), the “Hs18S ΔCT” value was -0.13. For the same molecule, in data set [2], the cytotoxicity at 10 µM was -9.1%. Also, the inhibition at 10 µM in data set [3] was -42.4%.
For the molecule `CC(=O)OC1CCC23CC1(C)CCC2C(C)(C)CC3OC(C)=O` (centres unmarked) [CLOVANEDIOL DIACETATE], in data set [1] (human, 41 h, 10 μM), the “Hs18S ΔCT” value came to 0.55. Further, the cytotoxicity at 41 h, 10 µM in data set [2] came out at 31.9%. Further, the inhibition at 10 µM in data set [3] was -0.83%.
Turning to `OC[C@H]1O[C@@H](Oc2ccc(O)cc2)[C@H](O)[C@@H](O)[C@@H]1O` [ARBUTIN], the “Hs18S ΔCT” value in data set [1] (human, 41 h, 10 μM) was found to be 0.01. In data set [2], the cytotoxicity at 41 h, 10 µM was determined as 0.5%. Besides, in data set [3], the inhibition at 10 µM amounted to 16.1%.
Consider `CC12CCC3C(CC3(C)C)C(C)(CCC1=O)O2` (centres unmarked) [3,7-EPOXYCARYOPHYLLAN-6-ONE], for which, in data set [1] (human, 41 h, 10 μM), the “Hs18S ΔCT” value came out at 0.27. Besides, in data set [2], the cytotoxicity at 41 h, 10 µM worked out at 17%. In addition, in data set [3], the inhibition at 10 µM is 13.1%.
Consider `COc1cc2ccc(=O)oc2c2ccoc12` [SPHONDIN], for which, in data set [1] (setting [5]), the “Hs18S ΔCT” value came out at 0.32. For the same molecule, the cytotoxicity at 10 µM in data set [2] came out at 20.1%. The inhibition at 10 µM in data set [3] is -5.49%.
In the case of `COc1ccc2c(c1)OC[C@@H](Cc1ccc(OC)c(OC)c1)[C@@H]2O` [3-DESHYDROXYSAPPANOL TRIMETHYL ETHER], in data set [1] (human, 41 h, 10 μM), the “Hs18S ΔCT” value is listed as 0.05. Moreover, the cytotoxicity at 41 h, 10 µM in data set [2] came out at 3.2%. In addition, the inhibition at 10 µM in data set [3] was 7.69%.
